Assay results published in PMC12748989 (Nature Communications, 2025).

Legend:
[1] = test system: MDA-MB-231 cells
[2] = test system: PBMC; conditions: 12.5 µM

Row | Structure (SMILES) | Average (percentage cell inhibition), Dmastoparan MDA-MB231 12.5uM [1] [%] | Average (percentage cell inhibition), Mastoparan PBMC [2] [%]
1 | CC[C@H](C)[C@H](N)C(=O)N[C@@H](CC(N)=O)C(=O)N[C@@H](CC(C)C)C(=O)N[C@@H](CCCCN)C(=O)N[C@@H](C)C(=O)N[C@@H](CC(C)C)C(=O)N[C@@H](C)C(=O)N[C@@H](C)C(=O)N[C@@H](CC(C)C)C(=O)N[C@@H](C)C(=O)N[C@@H](CCC(=O)O)C(=O)N[C@@H](CCCCN)C(=O)N[C@H](C(=O)N[C@@H](CC(C)C)C(N)=O)[C@@H](C)CC [E11] | 19.6815 | 5.959
2 | CC[C@H](C)[C@H](N)C(=O)N[C@@H](CC(N)=O)C(=O)N[C@@H](CC(C)C)C(=O)N[C@@H](CCCCN)C(=O)N[C@@H](C)C(=O)N[C@@H](CC(C)C)C(=O)N[C@@H](C)C(=O)N[C@@H](C)C(=O)N[C@@H](CC(C)C)C(=O)N[C@@H](C)C(=O)N[C@@H](CCCCN)C(=O)N[C@@H](CCC(=O)O)C(=O)N[C@H](C(=O)N[C@@H](CC(C)C)C(N)=O)[C@@H](C)CC [E12] | 21.4723 | 4.97
3 | CC[C@H](C)[C@H](N)C(=O)N[C@@H](CC(N)=O)C(=O)N[C@@H](CC(C)C)C(=O)N[C@@H](CCCCN)C(=O)N[C@@H](C)C(=O)N[C@@H](CC(C)C)C(=O)N[C@@H](C)C(=O)N[C@@H](C)C(=O)N[C@@H](CC(C)C)C(=O)N[C@@H](C)C(=O)N[C@@H](CCCCN)C(=O)N[C@@H](CCCCN)C(=O)N[C@@H](CCC(=O)O)C(=O)N[C@@H](CC(C)C)C(N)=O [E13] | 42.4043 | -2.907
4 | CC[C@H](C)[C@H](N)C(=O)N[C@@H](CC(N)=O)C(=O)N[C@@H](CC(C)C)C(=O)N[C@@H](CCCCN)C(=O)N[C@@H](C)C(=O)N[C@@H](CC(C)C)C(=O)N[C@@H](C)C(=O)N[C@@H](C)C(=O)N[C@@H](CC(C)C)C(=O)N[C@@H](C)C(=O)N[C@@H](CCCCN)C(=O)N[C@@H](CCCCN)C(=O)N[C@H](C(=O)N[C@@H](CCC(=O)O)C(N)=O)[C@@H](C)CC [E14] | 33.8434 | 2.998
5 | CC[C@H](C)[C@H](NC(=O)[C@H](CCCCN)NC(=O)[C@H](CCCCN)NC(=O)[C@H](C)NC(=O)[C@H](CC(C)C)NC(=O)[C@H](C)NC(=O)[C@H](C)NC(=O)[C@H](CC(C)C)NC(=O)[C@H](C)NC(=O)[C@H](CCCCN)NC(=O)[C@H](CC(C)C)NC(=O)[C@H](CC(N)=O)NC(=O)CN)C(=O)N[C@@H](CC(C)C)C(N)=O [G1] | 44.9778 | 6.436
6 | CC[C@H](C)[C@H](N)C(=O)NCC(=O)N[C@@H](CC(C)C)C(=O)N[C@@H](CCCCN)C(=O)N[C@@H](C)C(=O)N[C@@H](CC(C)C)C(=O)N[C@@H](C)C(=O)N[C@@H](C)C(=O)N[C@@H](CC(C)C)C(=O)N[C@@H](C)C(=O)N[C@@H](CCCCN)C(=O)N[C@@H](CCCCN)C(=O)N[C@H](C(=O)N[C@@H](CC(C)C)C(N)=O)[C@@H](C)CC [G2] | 71.0378 | 15.6884
7 | CC[C@H](C)[C@H](N)C(=O)N[C@@H](CC(N)=O)C(=O)NCC(=O)N[C@@H](CCCCN)C(=O)N[C@@H](C)C(=O)N[C@@H](CC(C)C)C(=O)N[C@@H](C)C(=O)N[C@@H](C)C(=O)N[C@@H](CC(C)C)C(=O)N[C@@H](C)C(=O)N[C@@H](CCCCN)C(=O)N[C@@H](CCCCN)C(=O)N[C@H](C(=O)N[C@@H](CC(C)C)C(N)=O)[C@@H](C)CC [G3] | 40.6724 | 8.745
8 | CC[C@H](C)[C@H](N)C(=O)N[C@@H](CC(N)=O)C(=O)N[C@@H](CC(C)C)C(=O)NCC(=O)N[C@@H](C)C(=O)N[C@@H](CC(C)C)C(=O)N[C@@H](C)C(=O)N[C@@H](C)C(=O)N[C@@H](CC(C)C)C(=O)N[C@@H](C)C(=O)N[C@@H](CCCCN)C(=O)N[C@@H](CCCCN)C(=O)N[C@H](C(=O)N[C@@H](CC(C)C)C(N)=O)[C@@H](C)CC [G4] | 39.0682 | 15.8704
9 | CC[C@H](C)[C@H](N)C(=O)N[C@@H](CC(N)=O)C(=O)N[C@@H](CC(C)C)C(=O)N[C@@H](CCCCN)C(=O)NCC(=O)N[C@@H](CC(C)C)C(=O)N[C@@H](C)C(=O)N[C@@H](C)C(=O)N[C@@H](CC(C)C)C(=O)N[C@@H](C)C(=O)N[C@@H](CCCCN)C(=O)N[C@@H](CCCCN)C(=O)N[C@H](C(=O)N[C@@H](CC(C)C)C(N)=O)[C@@H](C)CC [G5] | 39.6978 | 4.313
10 | CC[C@H](C)[C@H](N)C(=O)N[C@@H](CC(N)=O)C(=O)N[C@@H](CC(C)C)C(=O)N[C@@H](CCCCN)C(=O)N[C@@H](C)C(=O)NCC(=O)N[C@@H](C)C(=O)N[C@@H](C)C(=O)N[C@@H](CC(C)C)C(=O)N[C@@H](C)C(=O)N[C@@H](CCCCN)C(=O)N[C@@H](CCCCN)C(=O)N[C@H](C(=O)N[C@@H](CC(C)C)C(N)=O)[C@@H](C)CC [G6] | 27.1038 | 3.256
11 | CC[C@H](C)[C@H](N)C(=O)N[C@@H](CC(N)=O)C(=O)N[C@@H](CC(C)C)C(=O)N[C@@H](CCCCN)C(=O)N[C@@H](C)C(=O)N[C@@H](CC(C)C)C(=O)NCC(=O)N[C@@H](C)C(=O)N[C@@H](CC(C)C)C(=O)N[C@@H](C)C(=O)N[C@@H](CCCCN)C(=O)N[C@@H](CCCCN)C(=O)N[C@H](C(=O)N[C@@H](CC(C)C)C(N)=O)[C@@H](C)CC [G7] | 49.0864 | 11.7718
12 | CC[C@H](C)[C@H](N)C(=O)N[C@@H](CC(N)=O)C(=O)N[C@@H](CC(C)C)C(=O)N[C@@H](CCCCN)C(=O)N[C@@H](C)C(=O)N[C@@H](CC(C)C)C(=O)N[C@@H](C)C(=O)NCC(=O)N[C@@H](CC(C)C)C(=O)N[C@@H](C)C(=O)N[C@@H](CCCCN)C(=O)N[C@@H](CCCCN)C(=O)N[C@H](C(=O)N[C@@H](CC(C)C)C(N)=O)[C@@H](C)CC [G8] | 28.4057 | 1.421
13 | CC[C@H](C)[C@H](N)C(=O)N[C@@H](CC(N)=O)C(=O)N[C@@H](CC(C)C)C(=O)N[C@@H](CCCCN)C(=O)N[C@@H](C)C(=O)N[C@@H](CC(C)C)C(=O)N[C@@H](C)C(=O)N[C@@H](C)C(=O)NCC(=O)N[C@@H](C)C(=O)N[C@@H](CCCCN)C(=O)N[C@@H](CCCCN)C(=O)N[C@H](C(=O)N[C@@H](CC(C)C)C(N)=O)[C@@H](C)CC [G9] | 11.2187 | 7.302
14 | CC[C@H](C)[C@H](N)C(=O)N[C@@H](CC(N)=O)C(=O)N[C@@H](CC(C)C)C(=O)N[C@@H](CCCCN)C(=O)N[C@@H](C)C(=O)N[C@@H](CC(C)C)C(=O)N[C@@H](C)C(=O)N[C@@H](C)C(=O)N[C@@H](CC(C)C)C(=O)NCC(=O)N[C@@H](CCCCN)C(=O)N[C@@H](CCCCN)C(=O)N[C@H](C(=O)N[C@@H](CC(C)C)C(N)=O)[C@@H](C)CC [G10] | 20.1107 | 11.4267
15 | CC[C@H](C)[C@H](N)C(=O)N[C@@H](CC(N)=O)C(=O)N[C@@H](CC(C)C)C(=O)N[C@@H](CCCCN)C(=O)N[C@@H](C)C(=O)N[C@@H](CC(C)C)C(=O)N[C@@H](C)C(=O)N[C@@H](C)C(=O)N[C@@H](CC(C)C)C(=O)N[C@@H](C)C(=O)NCC(=O)N[C@@H](CCCCN)C(=O)N[C@H](C(=O)N[C@@H](CC(C)C)C(N)=O)[C@@H](C)CC [G11] | 29.778 | 15.1682
16 | CC[C@H](C)[C@H](N)C(=O)N[C@@H](CC(N)=O)C(=O)N[C@@H](CC(C)C)C(=O)N[C@@H](CCCCN)C(=O)N[C@@H](C)C(=O)N[C@@H](CC(C)C)C(=O)N[C@@H](C)C(=O)N[C@@H](C)C(=O)N[C@@H](CC(C)C)C(=O)N[C@@H](C)C(=O)N[C@@H](CCCCN)C(=O)NCC(=O)N[C@H](C(=O)N[C@@H](CC(C)C)C(N)=O)[C@@H](C)CC [G12] | 17.8169 | 13.7945
17 | CC[C@H](C)[C@H](N)C(=O)N[C@@H](CC(N)=O)C(=O)N[C@@H](CC(C)C)C(=O)N[C@@H](CCCCN)C(=O)N[C@@H](C)C(=O)N[C@@H](CC(C)C)C(=O)N[C@@H](C)C(=O)N[C@@H](C)C(=O)N[C@@H](CC(C)C)C(=O)N[C@@H](C)C(=O)N[C@@H](CCCCN)C(=O)N[C@@H](CCCCN)C(=O)NCC(=O)N[C@@H](CC(C)C)C(N)=O [G13] | 23.4491 | 6.832
18 | CC[C@H](C)[C@H](N)C(=O)N[C@@H](CC(N)=O)C(=O)N[C@@H](CC(C)C)C(=O)N[C@@H](CCCCN)C(=O)N[C@@H](C)C(=O)N[C@@H](CC(C)C)C(=O)N[C@@H](C)C(=O)N[C@@H](C)C(=O)N[C@@H](CC(C)C)C(=O)N[C@@H](C)C(=O)N[C@@H](CCCCN)C(=O)N[C@@H](CCCCN)C(=O)N[C@H](C(=O)NCC(N)=O)[C@@H](C)CC [G14] | 28.3643 | 3.069
19 | CC[C@H](C)[C@H](NC(=O)[C@H](CCCCN)NC(=O)[C@H](CCCCN)NC(=O)[C@H](C)NC(=O)[C@H](CC(C)C)NC(=O)[C@H](C)NC(=O)[C@H](C)NC(=O)[C@H](CC(C)C)NC(=O)[C@H](C)NC(=O)[C@H](CCCCN)NC(=O)[C@H](CC(C)C)NC(=O)[C@H](CC(N)=O)NC(=O)[C@@H](N)Cc1c[nH]cn1)C(=O)N[C@@H](CC(C)C)C(N)=O [H1] | 37.0221 | 0.9359
20 | CC[C@H](C)[C@H](N)C(=O)N[C@@H](Cc1c[nH]cn1)C(=O)N[C@@H](CC(C)C)C(=O)N[C@@H](CCCCN)C(=O)N[C@@H](C)C(=O)N[C@@H](CC(C)C)C(=O)N[C@@H](C)C(=O)N[C@@H](C)C(=O)N[C@@H](CC(C)C)C(=O)N[C@@H](C)C(=O)N[C@@H](CCCCN)C(=O)N[C@@H](CCCCN)C(=O)N[C@H](C(=O)N[C@@H](CC(C)C)C(N)=O)[C@@H](C)CC [H2] | 35.1529 | 5.675
